Measured values reported in US9132082B2, “Compositions and methods for inhibiting gastric acid secretion” (Vecta, Ltd., priority 2005, dated 2015).

What was measured:
frog mucosa = details: ex vivo model of frog mucosa; cited from earlier work
gastric acid secretion [1] = details: administered after ligation of the pylorus; FIG. 5
Protocol: The possibility that succinic acid induces gastric acid secretion via local effect on the gastric lumen was tested in animals in which sodium succinate was administered after the ligation of the pylorus.

gastric acid secretion [2] = details: 15 mg/kg per os, pylorus ligated 30 min later, gastric juice after 60 min; FIG. 1
Protocol: Rats were administered (per os) with 15 mg/kg of sodium succinate (Na-SA) using gavage. 30 minutes later the rats were anesthetized with ketamine/domitor and the pylorus was ligated. Following additional 60 min, gastric juice was collected from the gastric lumen. Acid output was determined by titration with NaOH. Total acid output expressed in mEq HCl was calculated by multiplying the sample volume by the acid concentration. Results are expressed as means±SEM of 12 animals from each experimental group.

gastric acid output = details: extracted from fermented alcoholic beverages; Teyssen et al.; cited from earlier work
gastric acid secretion [3] = test: Conscious pylorus-ligated rats: pantoprazole alone or with succinic or maleic acid; format: in vivo; details: maleic acid 14.7 mg/kg with pantoprazole 3 mg/kg; FIG. 4
Protocol: This experimental model permits the analysis of the effect of drugs on gastric acid secretion in conscious animals and avoids the effect of anesthesia on gastric acid secretion. […] The ligature was placed around the esophagus, the stomach removed and gastric content was collected. Following centrifugation, the gastric output and the pH of the gastric juice samples was determined.

gastric acid secretion [4] = test: 3-way crossover clinical trial of Cap-in-Cap OMP/SA versus OMP, 24 hour intra-gastric pH; format: in vivo, human; details: OMP/SA at bedtime without food, OMP 20 mg before breakfast
Protocol: Thirty-six (36), H. pylori negative, healthy human volunteers received OMP 20 mg/SA 300 mg or OMP 40 mg/SA 300 mg at bedtime without food formulated as Cap-in-Cap capsules and OMP 20 mg dosed on an empty stomach before breakfast. These drugs were tested in a 3-way, randomized crossover study. […] Each treatment was administered once daily, for 5 consecutive days with a washout period of 21-25 days between treatments. 24 Hour intra-gastric pH monitoring was performed following the fifth dose (day 5).

gastric pH = test: Further clinical study: omeprazole and SA capsules co-administered at bedtime, 24 h gastric pH; format: in vivo, human; details: 10:00 pm on empty stomach
Protocol: In a further clinical study; healthy human volunteers were administered with Omeprazole and SA capsules which were co-administered at bed-time: Treatment T1-40 mg Omeprazole plus 600 mg SA; Treatment T2-40 mg Omeprazole plus 300 mg SA; Treatment T3-20 mg Omeprazole plus 300 mg SA. The study included gastric pH measurements on day 1 (first dose), day 3 (third dose) and day 5 (fifth dose). Study medications were administered at 10:00 pm on empty stomach and pH measurements were recorded for 24 hrs. The percentage time of gastric pH above 4 following the administration of SA and Omeprazole was calculated after the first dose, the third dose and the fifth dose.

[5] = system: nocturnal gastric acid secretion; test: Clinical study: bedtime omeprazole with succinic acid one hour later, gastric pH probe; format: in vivo, human; details: average n = 7
Protocol: Succinic Acid was administered one hour following Omeprazole administration. Gastric pH was measured on Day 1 and 5 using a pH probe. The pH probe was inserted into the distal portion of the stomach and located 20 cm below the lower esophageal sphincter. Baseline measurements of gastric pH were performed before omeprazole administration and during the following 24 hours. Standard meals were administered during pH monitoring. Blood samples for PK analysis of Omeprazole were drawn on Day 1 and 5. After a washout period of at least 14 days, the same subjects were administered with Omeprazole 40 mg alone.

[6] = Day 1, bedtime dosing without a meal
[7] = Day 5, bedtime dosing without a meal

Compound: O=C(O)CCC(=O)C(=O)O [alpha-ketoglutarate]
- proton secretion (frog mucosa): may stimulates proton secretion

Compound: O=C([O-])CCC(=O)[O-].[Na+].[Na+] [sodium succinate]
- acid secretion (gastric acid secretion [1]): capable of inducing acid secretion
- gastric acid secretion (total acid output) (gastric acid secretion [2]): significantly enhanced gastric acid secretion

Compound: O=C(O)CC(O)C(=O)O (stereo not drawn) [malate]
- proton secretion (frog mucosa): may stimulates proton secretion

Compound: O=C(O)CCC(=O)O [Succinic acid, succinic acid]
- gastric acid output in humans (gastric acid output): stimulate gastric acid output
- proton secretion (frog mucosa): may stimulates proton secretion

Compound: O=C(O)/C=C\C(=O)O [maleic acid]
- inhibitory effect of pantoprazole on gastric acid secretion (gastric acid secretion [3]): enhanced the inhibitory effect of pantoprazole
- gastric acid output in humans (gastric acid output): stimulate gastric acid output

Compound: COc1ccc2[nH]c([S+]([O-])Cc3ncc(C)c(OC)c3C)nc2c1 (stereo not drawn) [Omeprazole, omeprazole]
- Nighttime % time pH < 3 (gastric acid secretion [4]; 12 am-8 am, day 5): 65.5%
- Nighttime % time pH > 4 (gastric acid secretion [4]; 12 am-8 am, day 5): 27.2%
- Nighttime % time pH > 5 (gastric acid secretion [4]; 12 am-8 am, day 5): 11.5%
- 24-hour % time pH < 3 (gastric acid secretion [4]; day 5 (fifth dose)): 31.2%
- 24-hour % time pH > 4 (gastric acid secretion [4]; day 5 (fifth dose)): 47.6%
- 24-hour % time pH > 5 (gastric acid secretion [4]; day 5 (fifth dose)): 21.6%
- % time with pH > 4 (nocturnal hours only) (gastric pH; Fifth dose): Fifth dose: 49%
- % time with pH > 4 (total 24 h) (gastric pH; Fifth dose): Fifth dose: 64%
- % time with pH > 4 (nocturnal hours only) (gastric pH; First dose): First dose: 25%
- % time with pH > 4 (total 24 h) (gastric pH; First dose): First dose: 41%
- 2:00-4:00 AM (% time pH > 4) [5, 6]: 32.72%
- 4:00-6:00 AM (% time pH > 4) [5, 6]: 52.30%
- 12:00-2:00 AM (% time pH > 4) [5, 6]: 29.57%
- 2:00-4:00 AM (% time pH > 4) [5, 7]: 53.11%
- 4:00-6:00 AM (% time pH > 4) [5, 7]: 64.94%
- 12:00-2:00 AM (% time pH > 4) [5, 7]: 52.31%
